The values below come from paper PMC9015527 (Chemistry (Weinheim an Der Bergstrasse, Germany), 2021).

Data set [1] can be described thus: in vitro. The following applies: simian (monkey).
The subject of data set [2] is SARS-CoV-2 isolate MUC-IMB-1/2020. Format: cell-based.
A short description of data set [3]: in vitro. The following applies: human, Caco-2.
For data set [4], the system named is SARS-CoV-2 isolate MUC-IMB-1/2020. The data set can be described thus: microbe, parasite or virus in culture. Format: cell-based.

With `CCN(CC)CCCC(C)Nc1ccnc2cc(Cl)ccc12` (stereo not shown) [CQ, chloroquine], the CC50 in the data set “in vitro [1]” (CC50 (Vero 76, mAb-S)) was greater than 100 µM; in “in vitro [1]” (CC50 (Vero 76, mAb-dsRNA)), greater than 30 µM; in “in vitro [3]”, 41.7 ± 2.5 µM. For the same compound, the “SI (Vero 76, mAb-S)” value in data set [2] is on record as greater than 32.3. Further, the “SI (Caco-2)” value with SARS-CoV-2 d6-YFP came out at 3.2. For the same compound, the “SI (Vero 76, mAb-dsRNA)” value in data set [4] is recorded as greater than 14. Also, the EC50 in data set [4] (Severe acute respiratory syndrome coronavirus 2, Vero 76, read-out: EC50 (Vero 76, mAb-dsRNA)) was 2.2 ± 0.9 µM.

By EC50 is commonly meant the midpoint of the concentration-response curve.
